Assay [1] addresses purified class A, C and D enzymes (β-lactamases) (Escherichia coli, UniProt Q9L5C7). The assay can be described thus: biochemical. In kind it is biochemical. To be noted: purified CTX-M-14; nitrocefin (NCF) as reporter substrate.
The target of assay [2] is purified class A, C and D enzymes (β-lactamases) (Klebsiella pneumoniae, UniProt Q6XEC0). The assay can be described thus: biochemical. The settings on record: purified OXA-48; nitrocefin (NCF) as reporter substrate. In kind it is biochemical.
Assay [3] deals with purified class A, C and D enzymes (β-lactamases) (Klebsiella pneumoniae, UniProt Q9F663). In words: biochemical. It is filed as biochemical. The settings on record: purified KPC-2; nitrocefin (NCF) as reporter substrate.
The target of assay [4] is T1, purified class A, C and D enzymes (β-lactamases) (Acinetobacter baumannii, UniProt Q9L4P2).
T1 construct: rows headed: Ki (OXA-23, NCF), uM; other: purified OXA-23; nitrocefin (NCF) as reporter substrate
The assay can be described thus: biochemical. To be noted: purified OXA-23; nitrocefin (NCF) as reporter substrate. It is filed as biochemical.

Assay [5] deals with T2, purified class A, C and D enzymes (β-lactamases) (Pseudomonas aeruginosa, UniProt P24735).
T2 construct: rows headed: Ki (Pa-AmpC, NCF), uM; other: purified Pa-AmpC; nitrocefin (NCF) as reporter substrate
In words: biochemical. In kind it is biochemical.

Assay [6] addresses purified class A, C and D enzymes (β-lactamases) (Enterobacter cloacae, UniProt P05364). The assay can be described thus: biochemical. It is filed as biochemical.
Another assay deals with ec302 TEM-10. The assay can be described thus: Aztreonam potentiation (MPC@4), strain ec302 TEM-10. To be noted: minimum BLI concentration inhibiting growth with aztreonam 4 μg/mL; tested up to 40 μg/mL.
The next assay concerns KP1009 CTX-M-15. In words: Aztreonam potentiation (MPC@4), strain KP1009 CTX-M-15. To be noted: minimum BLI concentration inhibiting growth with aztreonam 4 μg/mL; tested up to 40 μg/mL.
The test system of a further assay is AB1054 OXA-23. In words: Meropenem potentiation (MPC@8), strain AB1054 OXA-23. To be noted: minimum BLI concentration inhibiting growth with meropenem 8 μg/mL; tested up to 20 μg/mL. In kind it is cell-based, Acinetobacter baumannii.
Another assay relates to EC1010 CMY-6. In words: Aztreonam potentiation (MPC@4), strain EC1010 CMY-6. To be noted: minimum BLI concentration inhibiting growth with aztreonam 4 μg/mL; tested up to 40 μg/mL.
The test system of a further assay is AB1053 OXA-72. The assay can be described thus: Meropenem potentiation (MPC@8), strain AB1053 OXA-72. It is filed as cell-based, Acinetobacter baumannii. The settings on record: minimum BLI concentration inhibiting growth with meropenem 8 μg/mL; tested up to 20 μg/mL.
In assay [7] the test system is KP1004 KPC-2. In words: Aztreonam potentiation (MPC@4), strain KP1004 KPC-2. The settings on record: minimum BLI concentration inhibiting growth with aztreonam 4 μg/mL; tested up to 40 μg/mL.
The test system of another assay is KP1005 CTX-M-14. The assay can be described thus: Tigemonam potentiation (MPC@4), strain KP1005 CTX-M-14. To be noted: minimum BLI concentration inhibiting growth with tigemonam 4 μg/mL; tested up to 40 μg/mL.
A further assay relates to ECL1002. In words: Aztreonam potentiation (MPC@4), strain ECL1002. To be noted: minimum BLI concentration inhibiting growth with aztreonam 4 μg/mL; tested up to 40 μg/mL.
The test system of a further assay is KP1010 SHV-12. The assay can be described thus: Aztreonam potentiation (MPC@4), strain KP1010 SHV-12. To be noted: minimum BLI concentration inhibiting growth with aztreonam 4 μg/mL; tested up to 40 μg/mL.
Another assay concerns KP1086 OXA-48. In words: Biapenem potentiation (MPC@1), strain KP1086 OXA-48. It is filed as cell-based. The settings on record: minimum BLI concentration inhibiting growth with biapenem 1 μg/mL; tested up to 40 μg/mL. On the procedure:
(§1) Biapenem was present in the test medium at 1 μg/mL. […] Table 3 summarizes the BLI potency of biapenem potentiation (MPC@1) for two strains overexpressing class A (KPC) and class D (OXA-48) carbapenemases. Biapenem MIC for each strain is also shown.

In another assay the test system is ec308 SHV-5. The assay can be described thus: Aztreonam potentiation (MPC@4), strain ec308 SHV-5. The settings on record: minimum BLI concentration inhibiting growth with aztreonam 4 μg/mL; tested up to 40 μg/mL.
In assay [8] the test system is KP1004 KPC-2. In words: Biapenem potentiation (MPC@1), strain KP1004 KPC-2. The settings on record: minimum BLI concentration inhibiting growth with biapenem 1 μg/mL; tested up to 40 μg/mL. In kind it is cell-based. The procedure:
as §1

Sequence of purified class A, C and D enzymes (β-lactamases) (Escherichia coli, UniProt Q9L5C7) (Q9L5C7 entry or part of it): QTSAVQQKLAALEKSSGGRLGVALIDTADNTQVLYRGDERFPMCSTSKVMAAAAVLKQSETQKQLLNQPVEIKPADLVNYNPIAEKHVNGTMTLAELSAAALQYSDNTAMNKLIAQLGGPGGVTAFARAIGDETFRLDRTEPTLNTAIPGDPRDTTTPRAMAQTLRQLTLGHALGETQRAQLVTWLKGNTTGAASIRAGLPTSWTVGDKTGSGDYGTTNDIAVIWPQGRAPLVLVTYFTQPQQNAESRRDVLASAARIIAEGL
Sequence of purified class A, C and D enzymes (β-lactamases) (Enterobacter cloacae, UniProt P05364) (P05364 21-381): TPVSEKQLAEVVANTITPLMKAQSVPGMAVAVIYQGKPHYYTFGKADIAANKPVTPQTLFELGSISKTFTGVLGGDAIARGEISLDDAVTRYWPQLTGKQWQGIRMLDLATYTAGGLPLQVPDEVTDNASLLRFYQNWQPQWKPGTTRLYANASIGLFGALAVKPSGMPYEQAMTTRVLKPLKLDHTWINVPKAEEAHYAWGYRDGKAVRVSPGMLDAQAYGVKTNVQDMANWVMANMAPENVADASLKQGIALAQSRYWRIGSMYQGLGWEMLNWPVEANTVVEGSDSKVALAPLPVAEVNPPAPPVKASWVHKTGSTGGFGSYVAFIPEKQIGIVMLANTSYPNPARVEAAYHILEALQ
T2 sequence (P24735 whole entry): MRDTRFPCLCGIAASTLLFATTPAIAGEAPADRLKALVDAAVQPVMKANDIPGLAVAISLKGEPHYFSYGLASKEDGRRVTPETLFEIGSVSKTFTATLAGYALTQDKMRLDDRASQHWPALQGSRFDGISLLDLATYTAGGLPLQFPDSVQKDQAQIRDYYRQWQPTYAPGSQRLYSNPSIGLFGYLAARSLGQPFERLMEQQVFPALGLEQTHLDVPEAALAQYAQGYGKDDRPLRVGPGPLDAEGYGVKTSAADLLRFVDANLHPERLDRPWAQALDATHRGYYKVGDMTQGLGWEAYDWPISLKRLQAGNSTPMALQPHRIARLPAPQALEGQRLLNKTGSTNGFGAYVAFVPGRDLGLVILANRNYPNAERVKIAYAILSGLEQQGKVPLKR
T1 sequence (Q9L4P2 whole entry): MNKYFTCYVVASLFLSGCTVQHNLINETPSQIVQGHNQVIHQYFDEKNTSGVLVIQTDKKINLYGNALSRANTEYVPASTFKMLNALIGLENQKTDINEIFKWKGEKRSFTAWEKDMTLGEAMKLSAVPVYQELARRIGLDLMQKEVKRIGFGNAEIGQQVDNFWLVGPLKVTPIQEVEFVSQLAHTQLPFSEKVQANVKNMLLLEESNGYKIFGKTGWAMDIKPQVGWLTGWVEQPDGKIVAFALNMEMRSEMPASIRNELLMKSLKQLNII

As for `NS(=O)(=O)Nc1ccc2c(c1C(=O)[O-])O[B-](O)(O)CC2.[Na+].[Na+]` [Compound 52, Disodium; 4,4-dihydroxy-8-(sulfamoylamino)-5-oxa-4-boranuidabicyclo[4.4.0]deca-1(6),7,9-triene-7-carboxylate], in [1], the “Ki (CTX-M-14, NCF), uM” value is “X (X = Ki ≤ 0.1 μM)”. In addition, the “Ki (OXA-48, NCF), uM” value in assay [2] is recorded as “X (X = Ki ≤ 0.1 μM)”. The “Ki (KPC-2, NCF), uM” value in assay [3] is “X (X = Ki ≤ 0.1 μM)”. For the same molecule, the results for the Ki in assay [4] and in assay [5] were 0.1 to 1 µM and less than 0.1 µM, respectively. Moreover, the “Ki (P99, NCF), uM” value in assay [6] was “X (key: X = Ki ≤ 0.1 μM; Y = 0.1 μM < Ki ≤ 1 μM; Z = Ki > 1 μM)”. Also, the “AZT MPC4 TEM-10 ec302” value in the assay on ec302 TEM-10 is on record as “Y (Y = 5 μg/mL < MPC@4 ≤ 20 μg/mL)”. Moreover, the “AZT MPC4 CTX-M-15 KP1009” value in the assay on KP1009 CTX-M-15 is “Y (Y = 5 μg/mL < MPC@4 ≤ 20 μg/mL)”. Also, the “MPM MPC8 AB1054 OXA-23” value in the assay with AB1054 OXA-23 is recorded as “Z (Z = MPC@1 > 20 μg/mL)”. Also, the “AZT MPC4 CMY-6 EC1010” value in the assay on EC1010 CMY-6 is listed as “X (X = MPC@4 ≤ 5 μg/mL)”. Moreover, the “MPM MPC8 AB1053 OXA-72” value in the assay on AB1053 OXA-72 was “Z (Z = MPC@1 > 20 μg/mL)”. Moreover, the “AZT MPC4 KPC-2 KP1004” value with KP1004 KPC-2 [7] is recorded as “X (X = MPC@4 ≤ 5 μg/mL)”. For the same molecule, in the assay with KP1005 CTX-M-14, the “TIG MPC4 CTX-M-14 KP1005” value is “Z (Z = MPC@4 > 20 μg/mL)”. Besides, the “AZT MPC4 ECL1002” value in the assay with ECL1002 is given as “X (X = MPC@4 ≤ 5 μg/mL)”. Besides, the “AZT MPC4 SHV-12 KP1010” value in the assay on KP1010 SHV-12 was “X (X = MPC@4 ≤ 5 μg/mL)”. Further, the “BPM MPC1 OXA-48 KP1086” value in the assay with KP1086 OXA-48 is “X (X = MPC@1 ≤ 5 μg/mL)”. The “AZT MPC4 SHV-5 ec308” value in the assay on ec308 SHV-5 is on record as “Y (Y = 5 μg/mL < MPC@4 ≤ 20 μg/mL)”. In the assay on KP1004 KPC-2 [8], the “BPM MPC1 KP1004 KPC-2” value was “X (X = MPC@1 ≤ 5 μg/mL)”.

As for `O=C([O-])c1c(OCC2CC2)ccc2c1O[B-](O)(O)CC2.[Na+].[Na+]` [Compound 45, Disodium; 8-(cyclopropylmethoxy)-4,4-dihydroxy-5-oxa-4-boranuidabicyclo[4.4.0]deca-1(6),7,9-triene-7-carboxylate], in assay [1], the “Ki (CTX-M-14, NCF), uM” value is on record as “X (X = Ki ≤ 0.1 μM)”. Moreover, in assay [2], the “Ki (OXA-48, NCF), uM” value is listed as “X (X = Ki ≤ 0.1 μM)”. In [3], the “Ki (KPC-2, NCF), uM” value is listed as “X (X = Ki ≤ 0.1 μM)”. The Ki in [4] and in assay [5] was less than 0.1 µM in each case. The “Ki (P99, NCF), uM” value in assay [6] was “X (key: X = Ki ≤ 0.1 μM; Y = 0.1 μM < Ki ≤ 1 μM; Z = Ki > 1 μM)”. For the same molecule, in the assay with ec302 TEM-10, the “AZT MPC4 TEM-10 ec302” value is on record as “Y (Y = 5 μg/mL < MPC@4 ≤ 20 μg/mL)”. For the same molecule, in the assay with KP1009 CTX-M-15, the “AZT MPC4 CTX-M-15 KP1009” value was “Z (Z = MPC@4 > 20 μg/mL)”. The “MPM MPC8 AB1054 OXA-23” value in the assay on AB1054 OXA-23 is reported as “X (X = MPC@1 ≤ 5 μg/mL)”. Besides, in the assay with EC1010 CMY-6, the “AZT MPC4 CMY-6 EC1010” value was “X (X = MPC@4 ≤ 5 μg/mL)”. Besides, the “MPM MPC8 AB1053 OXA-72” value in the assay with AB1053 OXA-72 was “X (X = MPC@1 ≤ 5 μg/mL)”. Besides, the “AZT MPC4 KPC-2 KP1004” value in the assay with KP1004 KPC-2 [7] is on record as “X (X = MPC@4 ≤ 5 μg/mL)”. The “TIG MPC4 CTX-M-14 KP1005” value with KP1005 CTX-M-14 is “Z (Z = MPC@4 > 20 μg/mL)”. The “AZT MPC4 ECL1002” value in the assay on ECL1002 was “Y (Y = 5 μg/mL < MPC@4 ≤ 20 μg/mL)”. Moreover, in the assay on KP1010 SHV-12, the “AZT MPC4 SHV-12 KP1010” value is reported as “X (X = MPC@4 ≤ 5 μg/mL)”. The “BPM MPC1 OXA-48 KP1086” value in the assay on KP1086 OXA-48 was “X (X = MPC@1 ≤ 5 μg/mL)”. The “AZT MPC4 SHV-5 ec308” value with ec308 SHV-5 is given as “Y (Y = 5 μg/mL < MPC@4 ≤ 20 μg/mL)”. Further, the “BPM MPC1 KP1004 KPC-2” value in the assay with KP1004 KPC-2 [8] was “X (X = MPC@1 ≤ 5 μg/mL)”.

With `COc1ccc2c(c1C(=O)[O-])O[B-](O)(O)[C@@H](CCO)C2.[Na+].[Na+]` [Compound 12, Disodium; (3R)-4,4-dihydroxy-3-(2-hydroxyethyl)-8-methoxy-5-oxa-4-boranuidabicyclo[4.4.0]deca-1(6),7,9-triene-7-carboxylate], in assay [1], the “Ki (CTX-M-14, NCF), uM” value is “X (X = Ki ≤ 0.1 μM)”. In addition, the “Ki (OXA-48, NCF), uM” value in assay [2] is “X (X = Ki ≤ 0.1 μM)”. Besides, the “Ki (KPC-2, NCF), uM” value in assay [3] is reported as “X (X = Ki ≤ 0.1 μM)”. Besides, the Ki in [4] and in [5] was 0.1 to 1 µM in each case. In assay [6], the “Ki (P99, NCF), uM” value is reported as “X (key: X = Ki ≤ 0.1 μM; Y = 0.1 μM < Ki ≤ 1 μM; Z = Ki > 1 μM)”. Also, the “AZT MPC4 TEM-10 ec302” value in the assay with ec302 TEM-10 is listed as “Z (Z = MPC@4 > 20 μg/mL)”. Also, the “AZT MPC4 CTX-M-15 KP1009” value in the assay with KP1009 CTX-M-15 is reported as “Y (Y = 5 μg/mL < MPC@4 ≤ 20 μg/mL)”. Moreover, the “MPM MPC8 AB1054 OXA-23” value in the assay with AB1054 OXA-23 is reported as “Y (Y = 5 μg/mL < MPC@1 ≤ 20 μg/mL)”. In addition, the “AZT MPC4 CMY-6 EC1010” value in the assay on EC1010 CMY-6 is given as “Y (Y = 5 μg/mL < MPC@4 ≤ 20 μg/mL)”. Moreover, the “MPM MPC8 AB1053 OXA-72” value in the assay with AB1053 OXA-72 is on record as “Y (Y = 5 μg/mL < MPC@1 ≤ 20 μg/mL)”. Further, the “AZT MPC4 KPC-2 KP1004” value in the assay with KP1004 KPC-2 [7] is listed as “Y (Y = 5 μg/mL < MPC@4 ≤ 20 μg/mL)”. The “TIG MPC4 CTX-M-14 KP1005” value in the assay on KP1005 CTX-M-14 is “Z (Z = MPC@4 > 20 μg/mL)”. Also, in the assay on ECL1002, the “AZT MPC4 ECL1002” value is listed as “Y (Y = 5 μg/mL < MPC@4 ≤ 20 μg/mL)”. In addition, the “AZT MPC4 SHV-12 KP1010” value in the assay on KP1010 SHV-12 is listed as “Y (Y = 5 μg/mL < MPC@4 ≤ 20 μg/mL)”. Further, the “BPM MPC1 OXA-48 KP1086” value in the assay on KP1086 OXA-48 was “Y (Y = 5 μg/mL < MPC@1 ≤ 20 μg/mL)”. The “AZT MPC4 SHV-5 ec308” value in the assay with ec308 SHV-5 was “Y (Y = 5 μg/mL < MPC@4 ≤ 20 μg/mL)”. Also, the “BPM MPC1 KP1004 KPC-2” value in the assay on KP1004 KPC-2 [8] is listed as “X (X = MPC@1 ≤ 5 μg/mL)”.

One may read the Ki as a dissociation constant, usually derived from enzyme kinetics or from competition with a known ligand. A higher Ki goes with lower affinity.

For the origin of these results see patent publication US10618918B2, “Substituted boronic acids as antimicrobials” (priority 2015, dated 2020).
